Like-named read-outs stand apart in the source and are kept apart here.
Tests used:
[1] = cited from earlier work
ABCG2 (BCRP) = molecular target: T1, ABCG2 (BCRP) (Homo sapiens, UniProt Q9UNQ0); experiment: Caco-2 permeability assay with BCRP substrate E3S; type: in vitro ADME; conditions: for interaction with BCRP / B–A apparent permeability of control substrate: Caco-2
T1 construct: Apparent permeability (Papp) was determined in the Caco-2 human colon carcinoma cell line; endogenous in cells; host or cells: Caco-2
T1 sequence (Q9UNQ0 1-655): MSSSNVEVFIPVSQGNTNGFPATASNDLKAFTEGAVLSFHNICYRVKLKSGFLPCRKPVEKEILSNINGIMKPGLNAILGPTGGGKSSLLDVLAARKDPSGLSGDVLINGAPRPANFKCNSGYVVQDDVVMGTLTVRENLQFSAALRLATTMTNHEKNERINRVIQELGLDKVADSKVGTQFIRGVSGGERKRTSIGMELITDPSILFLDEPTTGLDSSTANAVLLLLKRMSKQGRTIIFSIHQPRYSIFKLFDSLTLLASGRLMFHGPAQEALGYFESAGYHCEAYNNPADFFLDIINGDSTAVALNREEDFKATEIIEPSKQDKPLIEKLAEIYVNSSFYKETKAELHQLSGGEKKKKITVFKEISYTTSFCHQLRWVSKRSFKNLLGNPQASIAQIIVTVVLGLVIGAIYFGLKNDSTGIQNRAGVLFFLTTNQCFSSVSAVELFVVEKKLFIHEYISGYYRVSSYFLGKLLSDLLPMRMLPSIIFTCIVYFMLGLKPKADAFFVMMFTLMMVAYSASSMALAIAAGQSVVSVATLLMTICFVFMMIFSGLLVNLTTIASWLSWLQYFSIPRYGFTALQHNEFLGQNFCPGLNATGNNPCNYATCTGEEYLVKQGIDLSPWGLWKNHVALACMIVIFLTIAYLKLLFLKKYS
Description: (§1) Apparent permeability (Papp) was determined in the Caco-2 human colon carcinoma cell line. Cells were maintained (DMEM with 10% FBS, penicillin, and streptomycin) in a humidified atmosphere with 5%CO2/95% air for 10 days. Cells were plated out onto a cell culture assembly plate (Millipore), and monolayer confluency was checked using a transepithelial electrical resistance (TEER) electrode prior to the assay. Media were washed off and replaced in the appropriate apical and basal wells with Hank's Balanced Salt Solution buffer (pH 7.4). […] LY335979 (P-gp inhibitor) and Ko134 (BCRP inhibitor) were used as positive controls. The Caco-2 plate was incubated for 2 hours at 37°C in a humidified atmosphere with 5% CO2, and Lucifer yellow was used to confirm membrane integrity after the assay. Samples from the apical and basolateral chambers were analyzed using reverse chromatography tandem mass spectrometry on a Waters TQ-S.

[2] = up to 70 mg weekly ref 54; cited from earlier work
ABCB1 (P-gp) [3] = molecular target: T2, ABCB1 (P-gp) (Homo sapiens, UniProt P08183); experiment: Caco-2 permeability assay with P-gp substrate indinavir
T2 sequence (P08183 whole entry): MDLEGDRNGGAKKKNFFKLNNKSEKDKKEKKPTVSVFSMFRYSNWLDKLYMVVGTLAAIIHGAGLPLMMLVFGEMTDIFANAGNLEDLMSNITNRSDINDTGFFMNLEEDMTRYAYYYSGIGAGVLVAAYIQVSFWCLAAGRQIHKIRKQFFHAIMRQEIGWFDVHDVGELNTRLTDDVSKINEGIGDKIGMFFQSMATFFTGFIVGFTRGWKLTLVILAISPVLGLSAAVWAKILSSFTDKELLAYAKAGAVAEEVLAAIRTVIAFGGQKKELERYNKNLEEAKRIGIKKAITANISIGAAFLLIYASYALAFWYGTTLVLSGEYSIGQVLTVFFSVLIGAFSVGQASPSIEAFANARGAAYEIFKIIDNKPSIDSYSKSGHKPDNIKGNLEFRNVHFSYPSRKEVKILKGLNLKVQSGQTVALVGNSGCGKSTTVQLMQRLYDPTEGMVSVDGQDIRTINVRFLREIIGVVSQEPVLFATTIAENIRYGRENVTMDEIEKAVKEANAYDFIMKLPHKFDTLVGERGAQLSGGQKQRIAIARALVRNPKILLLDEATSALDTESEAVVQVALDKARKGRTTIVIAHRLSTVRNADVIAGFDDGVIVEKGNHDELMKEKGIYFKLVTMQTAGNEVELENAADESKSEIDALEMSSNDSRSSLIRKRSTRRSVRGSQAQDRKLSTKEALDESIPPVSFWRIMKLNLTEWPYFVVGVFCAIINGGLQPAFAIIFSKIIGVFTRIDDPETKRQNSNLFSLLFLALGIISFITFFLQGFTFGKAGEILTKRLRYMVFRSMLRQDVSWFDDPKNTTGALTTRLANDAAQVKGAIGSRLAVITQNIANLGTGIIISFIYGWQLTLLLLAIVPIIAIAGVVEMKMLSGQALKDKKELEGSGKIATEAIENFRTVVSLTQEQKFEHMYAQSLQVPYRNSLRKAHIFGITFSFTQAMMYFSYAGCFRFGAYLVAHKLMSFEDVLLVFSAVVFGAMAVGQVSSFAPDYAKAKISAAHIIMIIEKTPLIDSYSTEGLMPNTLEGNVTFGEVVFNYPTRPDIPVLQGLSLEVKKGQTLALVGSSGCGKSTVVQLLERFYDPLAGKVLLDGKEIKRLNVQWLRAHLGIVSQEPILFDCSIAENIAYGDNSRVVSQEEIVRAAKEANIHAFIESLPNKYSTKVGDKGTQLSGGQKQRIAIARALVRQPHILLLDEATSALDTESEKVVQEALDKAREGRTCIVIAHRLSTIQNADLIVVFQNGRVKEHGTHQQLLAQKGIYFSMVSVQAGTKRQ
Description: as §1

[4] = Vandetanib concentration in brain and tumor of NSG mice; type: in vivo; conditions: mouse, intraperitoneal, combined with everolimus
Description: (§2) Both patient-derived H3F3A^K27M, ACVR1^R206H HSJD-DIPG-007 cells and those derived from a Nestin-Tv-a; Trp53^fl/fl; Hist1h3b^K27M, Acvr1^R206H ([14]) GEMM were used for orthotopic implantation. A single-cell suspension of each culture was made the day before implantation and cultured overnight. On the implantation day, small tumorspheres in exponential growth were harvested by mild centrifugation. Three-week-old female athymic mice were anesthetized with 100 mg/kg ketamine and 10 mg/kg xylazine and immobilized in a stereotaxic apparatus (Stoelting) at coordinates x+0.5 and y−5.4 from the bregma suture. HSJD-DIPG-007 tumorspheres (5 × 10^5 cells), suspended in 5 μL Matrigel (BD Biosciences), were injected at a 3.1-mm depth (targeting the fourth ventricle) with a dull 22-gauge needle attached to a 50-μL syringe (Hamilton), using a stereotaxic arm. The animals (n = 72) were divided in four groups, with treatment starting 4 weeks (day 25) after tumor inoculation. […] Mice were monitored by daily weighing and sacrificed by decapitation upon deterioration of condition or 20% weight loss from the maximum weight achieved, with tissue taken for further analysis. Mouse brains collected at the end of the efficacy study were processed for IHC. […]

[5] = Vandetanib brain concentration in non-tumor-bearing mice (LC-MS/MS); type: in vivo, mouse; conditions: with everolimus compared with vandetanib alone, P = 0.0854
Description: Plasma and brain tissue samples were taken in triplicate at 1 hour after the last dose. Analysis was carried out by LC-MS/MS using a Xevo TQS coupled with an Acquity UPLC H-class system (Waters). Chromatography was carried out using a Phenomenex C18 X-B column (2.6 μm, 50 × 2.1 mm). Data acquisition was performed using Targetlynx, version 4.1, and modeling was carried out using Phoenix WinNonlin version 6.3.

[6] = tested on: ACVR1-mutant and wild-type patient-derived DIPG cells; experiment: Single-agent cell viability in patient-derived DIPG cells; conditions: in vitro; P = 0.0272
Description: Cells were plated at a density of 2,000 to 4,000 cells/well on laminin-coated 96-well plates in a minimum of triplicates. After 3 days of incubation, compounds were added to each well and incubated at 37°C in 5% CO2, 95% humidity for 8 days (192 hours). […] Cell viability was assessed by the CellTiter-Glo luminescent cell viability assay (Promega).

[7] = substrates of efflux transporters ABCB1 (P-gp) and/or ABCG2 (BCRP) ref 27, 28; cited from earlier work
[8] = Vandetanib concentration in brain and tumor of nude mice; type: in vivo; conditions: female, athymic nude, mouse, intraperitoneal, combined with everolimus
Description: as §2

[9] = with everolimus to inhibit P-gp and BCRP ref 41; cited from earlier work
DIPG = conditions: cited from earlier work
ABCB1 (P-gp) [10] = molecular target: T2, ABCB1 (P-gp); conditions: Caco-2
Description: as §1

Structure (SMILES): CO[C@H]1C[C@@H]2CC[C@@H](C)[C@@](O)(O2)C(=O)C(=O)N2CCCC[C@H]2C(=O)O[C@H]([C@H](C)C[C@@H]2CC[C@@H](OCCO)[C@H](OC)C2)CC(=O)[C@H](C)/C=C(\C)[C@@H](O)[C@@H](OC)C(=O)[C@H](C)C[C@H](C)/C=C/C=C/C=C/1C [everolimus]
- MTD and recommended phase II dose of everolimus ([1]; in combination with vandetanib ref 42): 10 mg once daily
- interaction with BCRP / B–A apparent permeability of control substrate (ABCG2 (BCRP)): significantly decreased
- mean peak levels compared with standard regimens [2]: tenfold higher
- tolerability of higher doses [2]: well tolerated
- interaction with P-gp / B–A apparent permeability of control substrate (ABCB1 (P-gp) [3]): significantly decreased

Structure (SMILES): COc1cc2c(Nc3ccc(Br)cc3F)ncnc2cc1OCC1CCN(C)CC1 [vandetanib]
- concentration at 2 h ([4]; normal brain): 10 µM
- concentration at 2 h ([4]; tumour (GEMM allograft)): < 5 µM
- MTD and recommended phase II dose of vandetanib ([1]; in combination with everolimus ref 42): 300 mg once daily
- interaction with BCRP / B–A apparent permeability of control substrate (ABCG2 (BCRP)): weak interactions
- effect of adding vandetanib to everolimus on BCRP substrate permeability (ABCG2 (BCRP); Caco-2, combination): no effect
- increase of median brain concentration of vandetanib [5]: 56%
- enhanced difference in cell viability, ACVR1-mutant compared with wild-type DIPG cells [6]: approximately twofold
- brain exposure [7]: insufficient brain exposures
- concentration at 2 h ([8]; normal brain): > 15 µM
- concentration at 2 h ([8]; tumour (PDX)): > 15 µM
- vandetanib brain concentrations in mice [9]: significantly increased
- DLT (diarrhea grade 3) (DIPG; in vivo): one
- RP2D (DIPG; in vivo): 145 mg/m^2/d
- patients with grade 4 hypertension and posterior reversible encephalopathy syndrome (DIPG; in vivo): two
- 2-year OS (DIPG; single agent ref 32): 21.4%
- MTD (DIPG; single agent ref 32): not reached
- objective responses (DIPG; single agent ref 32): no objective responses
- interaction with P-gp / B–A apparent permeability of control substrate (ABCB1 (P-gp) [10]): weak interactions

Structure (SMILES): C[C@@H](Oc1cc(-c2cnn(C3CCNCC3)c2)cnc1N)c1c(Cl)ccc(F)c1Cl [crizotinib]
- brain exposure [7]: insufficient brain exposures

Source: publication PMC7612365 (Cancer Discovery, 2021)
